From ChEMBL document CHEMBL3091280, “Synthesis and Cytotoxicity of Semisynthetic Withalongolide A Analogues” (ACS Med Chem Lett, 2013)

Experiments:
SK-MEL-28 = experiment: Cytotoxicity against human SK-MEL-28 cells after 72 hrs by MTS assay; format: functional, cell-based; conditions: SK-MEL-28, 72 h
MRC5 = experiment: Cytotoxicity against human MRC5 cells after 72 hrs by MTS assay; format: cell-based; conditions: MRC5, 72 h
MDA-MB-231 = experiment: Cytotoxicity against human MDA-MB-231 cells after 72 hrs by MTS assay; format: functional, cell-based; conditions: MDA-MB-231, 72 h
[1] = Cytotoxicity against human JMAR cells after 72 hrs by MTS assay; format: functional, cell-based
[2] = Cytotoxicity against human DRO 81-1 cells after 72 hrs by MTS assay; format: functional, cell-based

Row | Structure (SMILES) | IC50 (SK-MEL-28) | IC50 (MRC5) | IC50 (MDA-MB-231) | IC50 [1] | IC50 [2]
1 | CC1=C(CO)C(=O)O[C@@H]([C@@H](C)[C@H]2CC[C@H]3[C@@H]4C[C@H]5O[C@]56[C@@H](O)C=CC(=O)[C@]6(CO)[C@H]4CC[C@]23C)C1 | 1600 nM | 5300 nM | 1500 nM | 3100 nM | 1700 nM
2 | CC(=O)OCC1=C(C)C[C@H]([C@@H](C)[C@H]2CC[C@H]3[C@@H]4C[C@H]5O[C@]56[C@@H](OC(C)=O)C=CC(=O)[C@]6(COC(C)=O)[C@H]4CC[C@]23C)OC1=O | 110 nM | 310 nM | 655 nM | 655 nM | 110 nM
3 | CC(=O)OCC1=C(C)C[C@H]([C@@H](C)[C@H]2CC[C@H]3[C@@H]4C[C@H]5O[C@]56[C@@H](OC(C)=O)C=CC(=O)[C@]6(CO)[C@H]4CC[C@]23C)OC1=O | 170 nM | 295 nM | 635 nM | 600 nM | 58 nM
4 | CC(=O)OC[C@]12C(=O)C=C[C@H](OC(=O)c3ccc(Cl)cc3)[C@]13O[C@@H]3C[C@H]1[C@@H]3CC[C@H]([C@H](C)[C@H]4CC(C)=C(COC(=O)c5ccc(Cl)cc5)C(=O)O4)[C@@]3(C)CC[C@@H]12 | ≥ 10000 nM | ≥ 10000 nM | ≥ 10000 nM | ≥ 10000 nM | ≥ 10000 nM
5 | CC(=O)OCC1=C(C)C[C@H]([C@@H](C)[C@H]2CC[C@H]3[C@@H]4C[C@H]5O[C@]56[C@@H]5C=CC(=O)[C@]6(COC(=O)CC/C=C/CCC(=O)O5)[C@H]4CC[C@]23C)OC1=O | 205 nM | 360 nM | 245 nM | 965 nM | 225 nM
6 | C=CCCC(=O)OC[C@]12C(=O)C=C[C@H](OC(=O)CCC=C)[C@]13O[C@@H]3C[C@H]1[C@@H]3CC[C@H]([C@H](C)[C@H]4CC(C)=C(COC(C)=O)C(=O)O4)[C@@]3(C)CC[C@@H]12 | 470 nM | 865 nM | 625 nM | 1440 nM | 580 nM
7 | CC(=O)OCC1=C(C)C[C@H]([C@@H](C)[C@H]2CC[C@H]3[C@@H]4C[C@H]5O[C@]56[C@@H](OC(C)=O)C=C(I)C(=O)[C@]6(COC(C)=O)[C@H]4CC[C@]23C)OC1=O | 275 nM | 475 nM | 210 nM | 830 nM | 115 nM
8 | CC1=C(CO)C(=O)O[C@@H]([C@@H](C)[C@H]2CC[C@H]3[C@@H]4C[C@H]5O[C@]56[C@@H](O)C=C(I)C(=O)[C@]6(CO)[C@H]4CC[C@]23C)C1 | 9110 nM | 9100 nM | > 10000 nM | > 10000 nM | 5250 nM
9 | CC(=O)OCC1=C(C)C[C@H]([C@@H](C)[C@H]2CC[C@H]3[C@@H]4C[C@@H](OC(C)=O)C5=CC=CC(=O)[C@]5(COC(C)=O)[C@H]4CC[C@]23C)OC1=O | ≥ 10000 nM | ≥ 10000 nM | ≥ 10000 nM | ≥ 10000 nM | ≥ 10000 nM
10 | CC(=O)OCC1=C(C)C[C@H]([C@@H](C)[C@H]2CC[C@H]3[C@@H]4C[C@@H](O)[C@@]5(Cl)CC=CC(=O)[C@]5(COC(C)=O)[C@H]4CC[C@]23C)OC1=O | 1170 nM | 3150 nM | 800 nM | 2160 nM | 1350 nM
11 | CC(=O)OCC1=C(C)C[C@H]([C@@H](C)[C@H]2CC[C@H]3[C@@H]4C[C@@H](O)C5=CC=CC(=O)[C@]5(COC(C)=O)[C@H]4CC[C@]23C)OC1=O | ≥ 10000 nM | ≥ 10000 nM | ≥ 10000 nM | ≥ 10000 nM | ≥ 10000 nM
12 | CC(=O)OCC1=C(C)C[C@H]([C@@H](C)[C@H]2CC[C@H]3[C@@H]4C[C@H]5O[C@]56CC=CC(=O)[C@]6(COC(C)=O)[C@H]4CC[C@]23C)OC1=O | 710 nM | 2050 nM | 790 nM | 1220 nM | 1100 nM
13 | CC(=O)OCC1=C(C)C[C@H]([C@@H](C)[C@H]2CC[C@H]3[C@@H]4C[C@H]5O[C@]56[C@@H](OC(=O)N(C)C)C=CC(=O)[C@]6(COC(C)=O)[C@H]4CC[C@]23C)OC1=O | 205 nM | 510 nM | 175 nM | 970 nM | 86.5 nM
14 | CC1=C(CO)C(=O)O[C@@H]([C@@H](C)[C@H]2CC[C@H]3[C@@H]4C[C@H]5O[C@]56[C@@H](OC(=O)N(C)C)C=CC(=O)[C@]6(CO)[C@H]4CC[C@]23C)C1 | 515 nM | 1750 nM | 610 nM | 2090 nM | 585 nM
15 | CC1=C(COC(=O)c2ccc(Cl)cc2)C(=O)O[C@@H]([C@@H](C)[C@H]2CC[C@H]3[C@@H]4C[C@H]5O[C@]56[C@@H](OC(=O)c5ccc(Cl)cc5)C=CC(=O)[C@]6(COC(=O)c5ccc(Cl)cc5)[C@H]4CC[C@]23C)C1 | ≥ 10000 nM | ≥ 10000 nM | ≥ 10000 nM | ≥ 10000 nM | ≥ 10000 nM
16 | CC1=C(COC(=O)c2ccc(Cl)cc2)C(=O)O[C@@H]([C@@H](C)[C@H]2CC[C@H]3[C@@H]4C[C@H]5O[C@]56[C@@H](OC(=O)c5ccc(Cl)cc5)C=CC(=O)[C@]6(CO)[C@H]4CC[C@]23C)C1 | ≥ 10000 nM | ≥ 10000 nM | ≥ 10000 nM | ≥ 10000 nM | ≥ 10000 nM
17 | CC1=C(COC(=O)c2ccc(Cl)cc2)C(=O)O[C@@H]([C@@H](C)[C@H]2CC[C@H]3[C@@H]4C[C@H]5O[C@]56[C@@H](O)C=CC(=O)[C@]6(COC(=O)c5ccc(Cl)cc5)[C@H]4CC[C@]23C)C1 | 1110 nM | 2350 nM | 2620 nM | 4640 nM | 1900 nM
18 | CC1=C(CO)C(=O)O[C@@H]([C@@H](C)[C@H]2CC[C@H]3[C@@H]4C[C@H]5O[C@]56[C@@H](OC(=O)c5ccc(Cl)cc5)C=CC(=O)[C@]6(CO)[C@H]4CC[C@]23C)C1 | 2250 nM | 2550 nM | 1400 nM | 1720 nM | 1850 nM
19 | CCC(=O)OCC1=C(C)C[C@H]([C@@H](C)[C@H]2CC[C@H]3[C@@H]4C[C@H]5O[C@]56[C@@H](OC(=O)CC)C=CC(=O)[C@]6(COC(=O)CC)[C@H]4CC[C@]23C)OC1=O | 285 nM | 615 nM | 365 nM | 1000 nM | 130 nM
20 | CC(=O)OCC1=C(C)C[C@H]([C@@H](C)[C@H]2CC[C@H]3[C@@H]4C[C@H]5O[C@]56[C@@H](O)C=CC(=O)[C@]6(COC(C)=O)[C@H]4CC[C@]23C)OC1=O | 230 nM | 490 nM | 205 nM | 515 nM | 155 nM
21 | CC(=O)O[C@H]1C=CC(=O)[C@]2(CO)[C@H]3CC[C@]4(C)[C@@H]([C@H](C)[C@H]5CC(C)=C(CO)C(=O)O5)CC[C@H]4[C@@H]3C[C@H]3O[C@]132 | 1220 nM | 1200 nM | 890 nM | 2480 nM | 570 nM
22 | CC(=O)OC[C@]12C(=O)C=C[C@H](O)[C@]13O[C@@H]3C[C@H]1[C@@H]3CC[C@H]([C@H](C)[C@H]4CC(C)=C(CO)C(=O)O4)[C@@]3(C)CC[C@@H]12 | 1230 nM | 1800 nM | 1150 nM | 3060 nM | 780 nM
23 | CC(=O)OCC1=C(C)C[C@H]([C@@H](C)[C@H]2CC[C@H]3[C@@H]4C[C@H]5O[C@]56[C@@H](O)C=CC(=O)[C@]6(CO)[C@H]4CC[C@]23C)OC1=O | 705 nM | 2300 nM | 415 nM | 1220 nM | 1050 nM
24 | CC1=C(CO)C(=O)O[C@@H]([C@@H](C)[C@H]2CC[C@H]3[C@@H]4C[C@H]5O[C@]56[C@@H](O)C=CC(=O)[C@]6(C)[C@H]4CC[C@]23C)C1 [WITHAFERIN A] | 1000 nM | 2700 nM | 540 nM | 1000 nM | 780 nM
